pIC50: −log10 of the molar value.
target: mTOR/GbL/Raptor (mTORC1) (Homo sapiens, UniProt P42345); assay: mTOR/GbL/Raptor (mTORC1) ELISA assay; type: biochemical; details: phosphorylation of 4E-BP1; 0.2 nM mTORC1, 10 μM ATP; read-out: IC50 in this assay (mTORC1 ELISA)
Outline: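 Human mTORC1 (0.2 nM) phosphorylated 50 nM His-tagged 4E-BP1 with 10 µM ATP in HEPES pH 7.2 containing 10 mM MnCl2, 120 min at ambient temperature. Substrate was captured on Ni-chelate plates; phospho-4E-BP1 was detected by primary antibody and HRP secondary with luminescence.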

Row | Structure (SMILES) | pIC50
1 | CC1(C)CCc2ncnc(N3CCOc4ccc(-c5cnc(N)c(S(=O)(=O)N6CC(O)C6)c5)cc4C3)c2C1 [Example 315, 1-({2-amino-5-[4-(6,6-dimethyl-5,6,7,8-tetrahydroquinazolin-4-yl)-2,3,4,5-tetrahydro-1,4-benzoxazepin-7-yl]pyridin-3-yl}sulfonyl)azetidin-3-ol] | 7.30 to 8.00
2 | Cc1nc2ccc(-c3ccc4c(c3)CN(c3ncnc(C(C)C)c3C)CCO4)cc2[nH]1 [Example 62, 7-(2-methyl-1H-benzimidazol-6-yl)-4-[5-methyl-6-(1-methylethyl)pyrimidin-4-yl]-2,3,4,5-tetrahydro-1,4-benzoxazepine] | 6.00 to 6.60
3 | Cc1nc(N)sc1-c1ccc2c(c1)CN(c1ncnc3c1CCC(C)(C)C3)CCO2 [Example 156, 5-[4-(7,7-dimethyl-5,6,7,8-tetrahydroquinazolin-4-yl)-2,3,4,5-tetrahydro-1,4-benzoxazepin-7-yl]-4-methyl-1,3-thiazol-2-amine] | 7.30 to 8.00
4 | COc1ccc2c(N3CCOc4ccc(-c5cnc(NC(C)=O)s5)cc4C3)nc(C)nc2c1 [Example 293, N-(5-{4-[2-methyl-7-(methyloxy)quinazolin-4-yl]-2,3,4,5-tetrahydro-1,4-benzoxazepin-7-yl}-1,3-thiazol-2-yl)acetamide] | ≤ 5.70
5 | Nc1nc2ncc(-c3ccc4c(c3)CN(c3ncnc5ccc(Br)cc35)CCO4)cc2[nH]1 [Example 181, 6-[4-(6-brromoquinazolin-4-yl)-2,3,4,5-tetrahydro-1,4-benzoxazepin-7-yl]-1H-imidazo[4,5-b]pyridin-2-amine] | ≥ 8.00
6 | CCNc1nc2ccc(-c3ccc4c(c3)CN(c3nc(C)nc5cc(OC)c(OC)cc35)CCO4)cc2[nH]1 [Example 271, N-ethyl-6-{4-[2-methyl-6,7-bis(methyloxy)quinazolin-4-yl]-2,3,4,5-tetrahydro-1,4-benzoxazepin-7-yl}-1H-benzimidazol-2-amine] | 6.00 to 6.60
7 | Cc1nc2ccc(-c3ccc4c(c3)CN(c3ccnc5cc(F)ccc35)CCO4)cc2[nH]1 [Example 241, 4-(7-fluoroquinolin-4-yl)-7-(2-methyl-1H-benzimidazol-6-yl)-2,3,4,5-tetrahydro-1,4-benzoxazepine] | 6.00 to 6.60
8 | CC1CCc2c(ncnc2N2CCOc3ccc(-c4cnc5nc(N)[nH]c5c4)cc3C2)C1 (stereo not drawn) [Example 179, 6-[4-(7-methyl-5,6,7,8-tetrahydroquinazolin-4-yl)-2,3,4,5-tetrahydro-1,4-benzoxazepin-7-yl]-1H-imidazo[4,5-b]pyridin-2-amine] | 7.30 to 8.00
9 | c1ccc2c(N3CCOc4ccc(-c5ccc6nc[nH]c6c5)cc4C3)ccnc2c1 [Example 126, 7-(1H-benzimidazol-6-yl)-4-quinolin-4-yl-2,3,4,5-tetrahydro-1,4-benzoxazepine] | 6.00 to 6.60

Now from value to compound:

Row | pIC50 | Structure (SMILES)
10 | 7.30 to 8.00 | CC[C@H]1CCc2c(nc(C)nc2N2CCOc3ccc(-c4cnc(N)c(S(=O)(=O)N5CCC(C)(N)C5)c4)cc3C2)C1 (stereo partly drawn) [Example 441, 3-[(3-amino-3-methylpyrrolidin-1-yl)sulfonyl]-5-{4-[(7S)-7-ethyl-2-methyl-5,6,7,8-tetrahydroquinazolin-4-yl]-2,3,4,5-tetrahydro-1,4-benzoxazepin-7-yl}pyridin-2-amine]
11 | 6.00 to 6.60 | Cc1c(NC2CCN(C)CC2)ncnc1N1CCOc2ccc(-c3cnc4nc(C5CC5)[nH]c4c3)cc2C1 [Example 531, 6-[7-(2-cyclopropyl-1H-imidazo[4,5-b]pyridin-6-yl)-2,3-dihydro-1,4-benzoxazepin-4(5H)-yl]-5-methyl-N-(1-methylpiperidin-4-yl)pyrimidin-4-amine]
12 | ≥ 8.00 | Cc1nc2ncc(-c3ccc4c(c3)CN(c3ncnc5c3CC(C)(C)C=C5)CCO4)cc2[nH]1 [Example 478, 4-(6,6-dimethyl-5,6-dihydroquinazolin-4-yl)-7-(2-methyl-1H-imidazo[4,5-b]pyridin-6-yl)-2,3,4,5-tetrahydro-1,4-benzoxazepine]
13 | 7.30 to 8.00 | CC(CO)NS(=O)(=O)c1cc(-c2ccc3c(c2)CN(c2ncnc4c2CC(C)(C)CC4)CCO3)cnc1N (stereo not drawn) [Example 368, 2-amino-5-[4-(6,6-dimethyl-5,6,7,8-tetrahydroquinazolin-4-yl)-2,3,4,5-tetrahydro-1,4-benzoxazepin-7-yl]-N-(2-hydroxy-1-methylethyl)pyridine-3-sulfonamide]
14 | 6.00 to 6.60 | CCc1nc(CN(C)C)nc(N2CCOc3ccc(-c4cnc5[nH]c(C)nc5c4)cc3C2)c1C [Example 344, 1-{4-ethyl-5-methyl-6-[7-(2-methyl-3H-imidazo[4,5-b]pyridin-6-yl)-2,3-dihydro-1,4-benzoazepin-4(5H)-yl]pyrimnidin-2-yl}-N,N-dimethylmethanamine]
15 | 6.60 to 7.30 | Cc1nc2ncc(-c3ccc4c(c3)CN(c3nc(CN5CCCCC5)nc5c3CC(C)(C)CC5)CCO4)cc2[nH]1 [Example 499, 4-[6,6-dimethyl-2-(piperidin-1-ylmethyl)-5,6,7,8-tetrahydroquinazolin-4-yl]-7-(2-methyl-1H-imidazo[4,5-b]pyridin-6-yl)-2,3,4,5-tetrahydro-1,4-benzoxazepine]
16 | 6.60 to 7.30 | Cc1nc(CN(C)C)nc(N2CCOc3ccc(-c4cnc5sc(N)nc5c4)cc3C2)c1CC1CC1 [Example 663, 6-(4-{5-(cyclopropylmethyl)-2-[(dimethylamino)methyl]-6-methylpyrimidin-4-yl}-2,3,4,5-tetrahydro-1,4-benzoxazepin-7-yl)[1,3]thiazolo[5,4-b]pyridin-2-amine]
17 | ≤ 5.70 | Cc1nc2ccc(-c3ccc4c(c3)CN(c3nc(CN(C)C)nc(C)c3C)CCO4)cc2[nH]1 [Example 672, 1-{4,5-dimethyl-6-[7-(2-methyl-1H-benzimidazol-6-yl)-2,3-dihydro-1,4-benzoxazepin-4(5H)-yl]pyrimidin-2-yl}-N,N-dimethylmethanamine]
18 | 6.60 to 7.30 | CC(C)(N)CCNS(=O)(=O)c1cc(-c2ccc3c(c2)CN(c2ncnc4c2CC(C)(C)CC4)CCO3)cnc1N [Example 413, 2-amino-N-(3-amino-3-methylbutyl)-5-[4-(6,6-dimethyl-5,6,7,8-tetrahydroquinazolin-4-yl)-2,3,4,5-tetrahydro-1,4-benzoxazepin-7-yl]pyridine-3-sulfonamide]
19 | ≥ 8.00 | COCCOCc1nc2c(c(N3CCOc4ccc(-c5cnc6nc(C)[nH]c6c5)cc4C3)n1)CC(C)(C)CC2 [Example 495, 4-[6,6-dimethyl-2-({[2-(methyloxy)ethyl]oxy}methyl)-5,6,7,8-tetrahydroquinazolin-4-yl]-7-(2-methyl-1H-imidazo[4,5-b]pyridin-6-yl)-2,3,4,5-tetrahydro-1,4-benzoxazepine]
20 | ≥ 8.00 | Cc1nc2ncc(-c3ccc4c(c3)CN(c3nc(CNS(C)(=O)=O)nc5c3CC(C)(C)CC5)CCO4)cc2[nH]1 [Example 601, N-({6,6-dimethyl-4-[7-(2-methyl-1H-imidazo[4,5-b]pyridin-6-yl)-2,3-dihydro-1,4-benzoxazepin-4(5H)-yl]-5,6,7,8-tetrahydroquinazolin-2-yl)methyl)methanesulfonamide]
21 | ≥ 8.00 | CC1(C)CCc2ncnc(N3CCOc4ccc(-c5cnc(N)c(S(=O)(=O)N6CC[C@@H](N)C6)c5)cc4C3)c2C1 [Example 449, 3-{[(3R)-3-aminpyrrolidin-1-yl]sulfonyl}-5-[4-(6,6-dimethyl-5,6,7,8-tetrahydroquinazolin-4-yl)-2,3,4,5-tetrahydro-1,4-benzoxazepin-7-yl]pyridin-2-amine]

Reference: patent US8648066B2 (Exelixis, Inc., priority 2009, dated 2014)
